We go through 26 compounds from US20110124626A1, “BENZAZEPINE DERIVATIVES AND THEIR USE AS HISTAMINE H3 ANTAGONISTS” (TAKEDA PHARMACEUTICAL COMPANY LIMITED, priority 2008, published 2011).

This assay deals with T1, human H3 receptor (Homo sapiens, UniProt Q9Y5N1).
T1 construct: expressed in transfected cells
T1 sequence (Q9Y5N1 whole entry): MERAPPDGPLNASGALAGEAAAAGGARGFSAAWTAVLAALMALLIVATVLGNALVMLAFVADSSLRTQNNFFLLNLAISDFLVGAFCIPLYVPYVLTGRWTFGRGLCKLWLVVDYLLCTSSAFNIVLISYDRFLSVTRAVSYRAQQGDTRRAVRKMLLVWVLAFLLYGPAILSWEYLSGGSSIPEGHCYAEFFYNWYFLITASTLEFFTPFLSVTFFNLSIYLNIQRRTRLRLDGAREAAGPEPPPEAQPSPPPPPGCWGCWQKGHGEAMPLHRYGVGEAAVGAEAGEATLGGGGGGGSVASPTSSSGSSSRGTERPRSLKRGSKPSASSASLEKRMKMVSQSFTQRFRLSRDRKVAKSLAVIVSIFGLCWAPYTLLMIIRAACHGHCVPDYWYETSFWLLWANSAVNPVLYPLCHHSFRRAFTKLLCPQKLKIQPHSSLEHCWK
The assay is described as follows: In vitro H3 binding assay (3H-N-α-methyl-histamine competition binding). As to conditions: membranes of CHO-K1 cells expressing human H3 receptor; 2 nM 3H-NαMH; read-out: hH3 binding IC50. On the procedure: The ability of compounds to bind to the H3 receptor was determined by measuring the reduction in tritiated N-α-methyl-histamine (^3H—NαMH) binding in a competition binding assay. Changes in the levels of bound radio-label were monitored by scintillation counting with a Trilux Microbeta (Perkin Elmer).
Membranes were prepared from CHO-K1 cells stably expressing human H3 receptor; routinely grown as monolayers in Ham's F12 medium (Invitrogen) supplemented with 10% Foetal Clone 111 (Hyclone), 500 μg/ml G418 (Invitrogen), 5 μg/ml blasticidine S (Invivogen) and […] Gentamicin (Sigma) in 5% CO2 at 37° C. Cells were grown to 80-95% confluency, rinsed once with 1×PBS (Invitrogen) and detached by incubating with 1×PBS containing 0.02% EDTA (Sigma) for 10 minutes at room temperature. Cells were collected by centrifugation at 900×g, 4° C. for 10 minutes. Cells were rinsed once with 1×PBS and re-suspended in ice cold homogenisation buffer (50 mM Tris-HCl (pH 7.4), 2.5 mM EDTA, 5 mM MgCl2, 200 mM Sucrose) at 1×10^7 cells/ml and kept on ice. Cells were homogenised on ice and debris removed by centrifugation at 500×g, 4° C. for 5 minutes. The resulting supernatant was centrifuged at 75,600×g, 4° C. for 60 minutes. Membranes were suspended in homogenisation buffer, protein concentration was determined (BCA Protein Assay kit (Pierce)), diluted to 2.2 mg/ml, dispensed into 1 ml aliquots and stored at −80° C.
Membranes were thawed on ice, sonicated with 4 cycles of 20 pulses (50% amplitude, 0.5 pulse) (UP200S Hielscher) on ice, diluted in assay buffer (50 mM Tris-HCl (pH7.4), 5 mM MgCl2) to 62.5 μg/ml. Compound was serially diluted in DMSO before being diluted 1:10 with assay buffer. 5 μg of membrane in 80 μl of assay buffer was added per well of a 96 well polystyrene plate (Corning). […] of compound was added per well. The assay was initiated by the addition of 10 μl of 20 nM ^3H—NαMH per well and incubated for one hour at room temperature with shaking. Total binding was determined in the presence of 1% DMSO and non-specific binding was determined by the inclusion of 1 μM R-α-methyl-histamine (RαMH). Incubations were then filtered through filtermat A (Perkin Elmer) and washed three times with assay buffer. Filtermats were dried at 42° C. for two hours, scintillant added and the level of bound radioactivity determined.
IC50 values for compounds were determined from seven point log scale dose-response studies and represent the concentration of compound required to inhibit 50% of the specific binding of 2 nM ^3H—NαMH (difference between total and non-specific binding). Curves were generated using the average of duplicate wells for each data point and analyzed using nonlinear regression of sigmoidal dose response (variable slope).
On to `Cc1occc1CNC(=O)c1ccc2c(c1)CCN(C1CCC1)CC2` [Example 90, 3-cyclobutyl-N-((2-methylfuran-3-yl)methyl)-2,3,4,5-tetrahydro-1H-benzo[d]azepine-7-carboxamide], for which the IC50 was determined as 10 nM. For `Cc1nn(C)c(C)c1CNC(=O)c1ccc2c(c1)CCN(C1CCC1)CC2` [Example 96, 3-Cyclobutyl-N-((1,3,5-trimethyl-1H-pyrazol-4-yl)methyl)-2,3,4,5-tetrahydro-1H-benzo[d]azepine-7-carboxamide] the value was 18 nM; for `Cc1oc(-c2ccccc2)nc1CNC(=O)c1ccc2c(c1)CCN(C1CCC1)CC2` [Example 85, 3-Cyclobutyl-N-((5-methyl-2-phenyloxazol-4-yl)methyl)-2,3,4,5-tetrahydro-1H-benzo[d]azepine-7-carboxamide], 14 nM. On to `Cn1ccc2cc(CNC(=O)c3ccc4c(c3)CCN(C3CCC3)CC4)ccc21` [Example 75, 3-Cyclobutyl-N-((1-methyl-1H-indol-5-yl)methyl)-2,3,4,5-tetrahydro-1H-benzo[d]azepine-7-carboxamide], for which the IC50 worked out at 15 nM. For `CCNC(=O)c1ccc2c(c1)CCN(C1CCC1)CC2` [Example 25, 3-Cyclobutyl-N-ethyl-2,3,4,5-tetrahydro-1H-benzo[d]azepine-7-carboxamide], the IC50 was determined as 37 nM. Regarding `C[C@H](O)CNc1ccc(C(=O)NCc2ccc3c(c2)CCN(C2CCC2)CC3)cn1` [Example 290, (S)—N-((3-cyclobutyl-2,3,4,5-tetrahydro-1H-benzo[d]azepin-7-yl)methyl)-6-(2-hydroxypropylamino)nicotinamide], the IC50 is 3 nM. On to `O=C(NCc1ccncc1)c1ccc2c(c1)CCN(C1CCCC1)CC2` [Example 21, 3-Cyclopentyl-N-(pyridin-4-ylmethyl)-2,3,4,5-tetrahydro-1H-benzo[d]azepine-7-carboxamide], for which the IC50 came out at 13 nM. Regarding `O=C(NCC1CCN(C2CCC2)CC1)c1ccc2c(c1)CCN(C1CCC1)CC2` [Example 11, 3-Cyclobutyl-N-((1-cyclobutylpiperidin-4-yl)methyl)-2,3,4,5-tetrahydro-1H-benzo[d]azepine-7-carboxamide], the IC50 stood at 30 nM. With `COc1ccc(CNC(=O)c2ccc3c(c2)CCN(C2CCC2)CC3)cc1` [Example 49, 3-Cyclobutyl-N-(4-methoxybenzyl)-2,3,4,5-tetrahydro-1H-benzo[d]azepine-7-carboxamide] the figure was 34 nM; with `O=C(NCc1ccccc1C(F)(F)F)c1ccc2c(c1)CCN(C1CCC1)CC2` [Example 57, 3-Cyclobutyl-N-(2-(trifluoromethyl)benzyl)-2,3,4,5-tetrahydro-1H-benzo[d]azepine-7-carboxamide], 12 nM. For the compound `O=C(NCc1ccc2c(c1)CCN(C1CCC1)CC2)c1ccc(O[C@H]2CCOC2)nc1` [Example 281, N-[(3-cyclobutyl-2,3,4,5-tetrahydro-1H-3-benzazepin-7-yl)methyl]-6-[(3S)-tetrahydrofuran-3-yloxy]pyridine-3-carboxamide], the IC50 was 0.8 nM. For `O=C(NCC1CCCC1)c1ccc2c(c1)CCN(C1CCC1)CC2` [Example 30, 3-Cyclobutyl-N-(cyclopentylmethyl)-2,3,4,5-tetrahydro-1H-benzo[d]azepine-7-carboxamide] the value was 5 nM.

Regarding `O=C(NCc1ccccc1)c1ccc2c(c1)CCN(C1CCCC1)CC2` [Example 19, N-Benzyl-3-cyclopentyl-2,3,4,5-tetrahydro-1H-benzo[d]azepine-7-carboxamide], the half-maximal inhibitory concentration (IC50) was found to be 20 nM.

For the compound `Cc1nc(CNC(=O)c2ccc3c(c2)CCN(C2CCC2)CC3)c(C)o1` [Example 93, 3-cyclobutyl-N-((2,5-dimethyloxazol-4-yl)methyl)-2,3,4,5-tetrahydro-1H-benzo[d]azepine-7-carboxamide], the concentration for half-maximal inhibition (IC50) is 29 nM. As for `O=C(NCc1ccc(Cl)cc1)c1ccc2c(c1)CCN(C1CCC1)CC2` [Example 67, N-(4-Chlorobenzyl)-3-cyclobutyl-2,3,4,5-tetrahydro-1H-benzo[d]azepine-7-carboxamide], the IC50 stood at 11 nM. For `Cn1ncc(Cl)c1CNC(=O)c1ccc2c(c1)CCN(C1CCC1)CC2` [Example 102, N-((4-chloro-1-methyl-1H-pyrazol-5-yl)methyl)-3-cyclobutyl-2,3,4,5-tetrahydro-1H-benzo[d]azepine-7-carboxamide], the IC50 was 18 nM. With `CN(Cc1ccc2c(c1)CCN(C1CCC1)CC2)C(=O)c1cnc(N2CCCC2)nc1` [Example 313, N-((3-cyclobutyl-2,3,4,5-tetrahydro-1H-benzo[d]azepin-7-yl)methyl)-N-methyl-2-(pyrrolidin-1-yl)pyrimidine-5-carboxamide] the figure was 1 nM; with `O=C(NCc1ccc2c(c1)CCN(C1CCC1)CC2)c1ccc(NCC2CC2)nc1` [Example 280, N-[(3-cyclobutyl-2,3,4,5-tetrahydro-1H-3-benzazepin-7-yl)methyl]-6-[(cyclopropylmethyl)amino]pyridine-3-carboxamide], 0.3 nM; with `COC(=O)c1ccc(CNC(=O)c2ccc3c(c2)CCN(C2CCC2)CC3)cc1` [Example 50, Methyl 4-((3-cyclobutyl-2,3,4,5-tetrahydro-1H-benzo[d]azepine-7-carboxamido)methyl)benzoate], 24 nM.

In the case of `O=C(NCc1ccoc1)c1ccc2c(c1)CCN(C1CCC1)CC2` [Example 89, 3-Cyclobutyl-N-(furan-3-ylmethyl)-2,3,4,5-tetrahydro-1H-benzo[d]azepine-7-carboxamide], the IC50 is 18 nM. For the compound `O=C(NCc1cccc(Cl)c1)c1ccc2c(c1)CCN(C1CCC1)CC2` [Example 65, N-(3-Chlorobenzyl)-3-cyclobutyl-2,3,4,5-tetrahydro-1H-benzo[d]azepine-7-carboxamide], the IC50 was 4 nM. As to `C[C@@H](O)CN(C)c1ccc(C(=O)NCc2ccc3c(c2)CCN(C2CCC2)CC3)cn1` [Example 316, (R)—N-((3-cyclobutyl-2,3,4,5-tetrahydro-1H-benzo[d]azepin-7-yl)methyl)-6-((2-hydroxypropyl)(methyl)amino)nicotinamide], the IC50 amounted to 0.9 nM.

Regarding `CNc1ncc(C(=O)NCc2ccc3c(c2)CCN(C2CCC2)CC3)cn1` [Example 302, N-((3-cyclobutyl-2,3,4,5-tetrahydro-1H-benzo[d]azepin-7-yl)methyl)-2-(methylamino)pyrimidine-5-carboxamide], the half-inhibitory concentration (IC50) was 3 nM. For the compound `O=C(NCc1ccc2c(c1)CCN(C1CC(O)C1)CC2)c1ccc(N2CCCC2)nc1` (centres unmarked) [Example 287, N-((3-(3-hydroxycyclobutyl)-2,3,4,5-tetrahydro-1H-benzo[d]azepin-7-yl)methyl)-6-(pyrrolidin-1-yl)nicotinamide], the 50% inhibitory concentration (IC50) was determined as 1 nM. For the compound `O=C(NCc1ccc2c(c1)CCN(C1CCC1)CC2)[C@H]1C[C@@H](OC2CCOCC2)C1` [Example 319, cis-N-((3-cyclobutyl-2,3,4,5-tetrahydro-1H-benzo[d]azepin-7-yl)methyl)-3-(tetrahydro-2H-pyran-4-yloxy)cyclobutanecarboxamide], the IC50 was 62 nM. As to `CO/N=C(\CCc1ccccc1)c1ccc2c(c1)CCN(C1CCC1)CC2` [Example 131, 1-(3-cyclobutyl-2,3,4,5-tetrahydro-1H-benzo[d]azepin-7-yl)-3-phenylpropan-1-one O-methyl oxime], the IC50 worked out at 30 nM.
